In PubChem BioAssay (NCI):
Several values for one entry are separate records, joined by “and”; a condition that tells them apart may be missing. Identical values can stand only once.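 48-hour exposure; five concentrations; linearly interpolated endpoints. Here, GI50 denotes the concentration required for 50% inhibition of growth. The concentration for full growth arrest is given as TGI.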

Columns and labels:
Test in all cases: NCI anticancer screen, dose series, 48 h
[1] = tested on: HCT-15 colon
[2] = tested on: ACHN renal
[3] = tested on: COLO 205 colon
[4] = tested on: IGROV1 ovarian
[5] = tested on: SK-MEL-5 melanoma
[6] = tested on: CCRF-CEM leukemia
[7] = tested on: NCI-H522 lung
[8] = tested on: SK-MEL-2 melanoma
[9] = tested on: K-562 leukemia
[10] = tested on: BT-549 breast

Row | Structure (SMILES) | GI50 [1] | TGI [1] | GI50 [2] | TGI [2] | GI50 [3] | TGI [3] | GI50 [4] | GI50 [5] | TGI [5] | GI50 [6] | TGI [6] | GI50 [7] | GI50 [8] | TGI [8] | GI50 [9] | TGI [9] | GI50 [10] | TGI [10] | TGI [4] | TGI [7]
1 | CC1[C@@H]2CC=C3[C@H]4CCC5Cc6nc7c(nc6C[C@@]5(C)C4CC(=O)[C@]32CO[C@]12OC(C)(C)CC2O)CC1CC[C@@H]2C3=C[C@H]4O[C@@]5(O[C@@](C)(CO)C[C@@H]5O)C(C)[C@@]4(O)[C@]3(C)[C@@H](O)CC2[C@]1(C)C7 (some centres not stated) | 0.0041 µM and 0.00763 µM | 0.102 µM and 0.129 µM | 0.00805 µM | 0.846 µM | 0.00217 µM and 0.00857 µM | 0.00721 µM and 0.0301 µM | 0.00399 µM and 0.0052 µM | 0.00235 µM and 0.00215 µM | 0.022 µM and 0.146 µM | 0.000309 µM and 0.000365 µM | 0.0114 µM and 0.00453 µM | 0.0131 µM | 0.0011 µM and 0.00208 µM | 0.0242 µM and 0.0699 µM | 0.000615 µM and 0.00111 µM | 0.0278 µM and 0.0311 µM | 0.000751 µM | 0.363 µM |  | 
2 | Cc1cnc(-c2ccc(-c3ccc(NC(=O)Nc4c(F)cc(F)cc4F)cc3F)c3c2C(=O)NC3)[nH]1 | 1.82 µM and 0.948 µM | > 100 µM | 2.55 µM and 1.35 µM | > 100 µM and 28.6 µM | < 0.01 µM | 13.2 µM and 27.3 µM | 0.824 µM and 1.31 µM | 0.852 µM and 2.09 µM | 9.16 µM and 14.1 µM |  | > 100 µM | 1.12 µM and 1.2 µM | 1.57 µM and 3.75 µM | 14.3 µM and 21.6 µM | 0.329 µM and 0.66 µM | 2.96 µM and 11.5 µM | 1.19 µM and 1.69 µM | 19.2 µM and 16.1 µM | 6.63 µM and 18.8 µM | 3.69 µM and 3.95 µM
3 | CC(=O)ON=C1C=CC(=C(C#N)c2ccccc2)C=C1 | 0.97 µM | 14.2 µM | 0.772 µM | 14.2 µM | 6.02 µM | 19.3 µM | 1 µM | 2.36 µM | 17.7 µM | 0.387 µM | > 100 µM | 0.383 µM | 2.19 µM | 15.6 µM | 0.556 µM | > 45 µM | 3.9 µM | 12.5 µM | 6.9 µM | 2.48 µM
4 | CC(C)C1=CC2=C(C(=O)C1=O)C13CCCC(C)(C)C1CC2OC3=O (configuration not stated) |  | 30.7 µM |  | 38.6 µM |  | 34.8 µM |  |  | 55.1 µM |  | 33.1 µM |  |  | 47.4 µM |  | 19.7 µM |  | 37.4 µM | 32.2 µM | 30.6 µM
5 | CC/C(=C(/c1ccc(OCCN(C)C)cc1)c1ccc(OC(=O)CCCCCCCCC(=O)c2c(C)[nH]c(/C=C3\N=C(c4ccc[nH]4)C=C3OC)c2C)cc1)c1ccccc1 | 5.12 µM | 97.8 µM | 7.82 µM | > 100 µM | 8.2 µM | 78 µM | 23.1 µM | 1.61 µM | 3.2 µM | 0.768 µM | > 100 µM | 21.2 µM | 30.7 µM | > 100 µM | 4.54 µM | > 100 µM | 5.21 µM | > 100 µM | > 100 µM | > 100 µM
6 | Cc1c(Cl)c(C)c(Cl)c(O)c1Cl |  | 75.6 µM |  | 72.5 µM |  | > 100 µM |  |  | 35.9 µM |  | > 100 µM |  |  | 30.3 µM |  | 46.3 µM |  | 81.7 µM | > 100 µM | 50.7 µM
7 | COC(=O)[C@]12CC[C@@H](C)[C@H](C)[C@@H]1C1=CC[C@@H]3[C@@](C)(CC#N)C4=C(C[C@@]3(C)[C@]1(C)CC2)OC[C@]4(C)C=O | 3.1 µM | 23.2 µM | 6.42 µM | > 100 µM | 14.4 µM | 29.6 µM | 5.28 µM | 3.3 µM | 11 µM | 3.49 µM | 16.9 µM | 14.7 µM | 4.31 µM | 18 µM | 3.22 µM | > 100 µM | 4.08 µM | 32.9 µM | > 100 µM | 46.9 µM
